Experimental data from patent US10640748B2, “Oligodendroglial cell culturing methods and in methods for treating neurodegenerative disorders by using thyroid hormones or analogues” (NeuOrphan Pty Ltd, priority 2014, dated 2020).
“Also recorded” adds a separate entry of the source.

How the values were obtained:
[1] = cited from earlier work
[2] = system: rat retinal ganglion cells (RGCs) and Nkx2.1-GFP+ sorted OPCs; test: Co-culture and myelination assay with rat RGC and hESC-derived OPCs; assay type: cell-based, rat; human
Description: Retinae were dissected from P6 Sprague-Dawley rat pups (AEC #1121/2011/M). RGCs were purified according to the published immunopanning protocol (Deliyanti and Wilkinson-Berka, 2015; Watkins et al., 2008). Details of the RGC preparation are described in Supplemental Experimental Procedure. The RGC growth medium was changed every third day and cultures were maintained for 9 days. Pre-OLs from Nkx2.1-GFP+ cells at stage VI day 10, were FACS sorted according to O4 antibody labeling. O4+ sorted cells were then co-cultured with RGCs at a density of 20,000/well under 3 different conditions: T3 with 0.01% ethanol, 10 ng/mL DITPA, and 40 ng/mL T3 with DITPA in myelination medium (see Supplemental Experimental Procedure). The medium was changed every 3 days and all co-cultures were fixed after 7 days, followed by immunocytochemistry. Cells were stained with a monoclonal rat anti-mCherry (Life Technologies, M11217, 1:1,000); monoclonal mouse anti-NF-200 (Sigma-Aldrich, N0142, 1:200); and polyclonal rabbit anti-MBP (Millipore, AB980, 1:200). Followed by incubation of appropriate Alexa Fluor-labeled secondary antibodies (Life technologies).
In RGC-OPC co-cultures, myelin segments were counted manually. 10 fields (×20 objective) were randomly selected and captured from each coverslip with a confocal microscope (Nikon A1 inverted). For representative images, 10 z-stack images (0.25 μm intervals) were captured, analysed and processed for 3D volume rendering by Imaris version 7.6.4. OLs were scored according to their morphology and defined as either “resting” (processes not touching axons); “contacting” (processes touching axons but not wrapping); and “ensheathing” (processes aligned with and wrapping axons). A myelination index (i.e. axons myelinated) was calculated by: the number of MBP+ membrane, ensheathing the NF200+ axons/the total number of NF200+ axons.
The dissected retinae were digested using papain dissociation system according to the manufacturer's protocol (Worthington). […]

[3] = system: Pre-OLs from Nkx2.1-GFP+ sorted cultures at stage VI, day 21; test: Pharmacological blockade of MCT8 with Bosutinib, DAPI+ dead cells by flow cytometry; assay type: cell-based, human; details: co-administration of 10 ng/mL DITPA with Bosutinib, 48 hours
Protocol: Pre-OLs from Nkx2.1-GFP+ sorted cultures at stage VI, day 21 were treated with the pharmacological inhibitor of MCT8, bosutinib (LC Laboratories, B-1788, reconstituted in dimethyl sulfoxide, [DMSO]) at different concentrations (1 ng/mL, 10 ng/mL and 100 ng/mL) with co-administration of 10 ng/mL DITPA. An MTT assay and flow cytometry were then performed on the cells stained for DAPI after 48 hours of treatment, to analyze DAPI+ dead cells.

[4] = system: rat RGCs and slc16a2 down-regulated OLs from Nkx2.1-GFP+ sorted cells; test: Co-culture myelination assay with slc16a2 down-regulated OLs; assay type: cell-based, rat; human; details: slc16a2 down-regulated OLs co-cultured with rat RGCs for 7 days
Description: Retinae were dissected from P6 Sprague-Dawley rat pups (AEC #1121/2011/M). RGCs were purified according to the published immunopanning protocol (Deliyanti and Wilkinson-Berka, 2015; Watkins et al., 2008). Details of the RGC preparation are described in Supplemental Experimental Procedure. The RGC growth medium was changed every third day and cultures were maintained for 9 days. Pre-OLs from Nkx2.1-GFP+ cells at stage VI day 10, were FACS sorted according to O4 antibody labeling. O4+ sorted cells were then co-cultured with RGCs at a density of 20,000/well under 3 different conditions: T3 with 0.01% ethanol, 10 ng/mL DITPA, and 40 ng/mL T3 with DITPA in myelination medium (see Supplemental Experimental Procedure). […]
For quantification of myelination in vitro following knockdown of slc16a2, at least nine fields (×20 objective) were randomly selected and captured from each coverslip with a confocal microscope (Nikon A1 inverted). A myelination index (%) by mCherry+ cells (i.e. axons myelinated by mCherry+ cells) was calculated by: the number of mCherry+/MBP+ membrane, ensheathing the NF200+ axons/the total number of NF200+ axons. Furthermore, the viable ensheathing mCherry+/MBP+ OLs and mature mCherry+ OLs according to their morphology with multiple processes and membranous sheaths were counted and their % calculated.

O=C(O)CCc1cc(I)c(Oc2ccc(O)cc2)c(I)c1 [DITPA, 3,5-Diiodothyropropionic acid]
solubility in water and aqueous solutions [1]: sparingly soluble | percentage of myelination (number of myelinated axons/total number of axons) ([2]; 7 days co-culture, 10 ng/mL DITPA, compared with T3 alone): significantly enhanced | contacting or ensheathing MBP+ OLs ([2]; 7 days co-culture, 10 ng/mL DITPA, versus T3 alone): more | myelination of rat retinal ganglion cells ([2]; FIG. 6): Depicts an experiment which shows that DITPA promotes the myelination of rat | cell death (DAPI+ dead cells) under Bosutinib MCT8 blockade [3]: significant reduction in cell death; also recorded: DITPA treatment of differentiating OPCs overcomes the cell death initiated by the | mCherry+/MBP+ myelinating OLs and mCherry+/MBP+ myelin segments [4]: found
